The test deals with Dipeptidyl peptidase 4 (Homo sapiens, UniProt P27487).

This passage reports IC50 results from ChEMBL document CHEMBL1141676, “A three-dimensional pharmacophore model for dipeptidyl peptidase IV inhibitors” (Eur J Med Chem, 2008).

Sequence of Dipeptidyl peptidase 4 (P27487 whole entry): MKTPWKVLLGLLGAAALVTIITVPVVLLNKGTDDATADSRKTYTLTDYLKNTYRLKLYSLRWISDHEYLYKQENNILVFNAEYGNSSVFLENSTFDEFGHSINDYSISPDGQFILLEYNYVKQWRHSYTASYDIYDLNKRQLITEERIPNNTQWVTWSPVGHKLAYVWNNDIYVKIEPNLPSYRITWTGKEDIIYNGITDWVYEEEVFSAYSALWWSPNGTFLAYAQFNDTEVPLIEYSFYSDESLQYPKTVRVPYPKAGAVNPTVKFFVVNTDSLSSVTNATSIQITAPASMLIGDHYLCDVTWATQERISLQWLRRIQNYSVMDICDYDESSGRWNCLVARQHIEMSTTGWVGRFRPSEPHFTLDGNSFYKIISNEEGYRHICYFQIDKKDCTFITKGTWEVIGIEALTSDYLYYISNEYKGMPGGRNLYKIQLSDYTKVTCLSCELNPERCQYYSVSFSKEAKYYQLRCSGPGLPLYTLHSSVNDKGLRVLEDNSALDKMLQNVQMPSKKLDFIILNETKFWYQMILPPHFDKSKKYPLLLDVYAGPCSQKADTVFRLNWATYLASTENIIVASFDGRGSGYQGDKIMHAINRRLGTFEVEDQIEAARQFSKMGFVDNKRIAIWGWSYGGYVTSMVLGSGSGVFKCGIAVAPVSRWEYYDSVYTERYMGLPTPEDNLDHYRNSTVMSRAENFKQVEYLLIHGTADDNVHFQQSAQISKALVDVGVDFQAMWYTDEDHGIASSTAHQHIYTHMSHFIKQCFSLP
Description: Inhibition of human DPP4 expressed in baculovirus system

`N[C@H](C(=O)N1CCc2ccccc2C1)C1CCCCC1` registered an IC50 of 230 µM.
The figure for `N#C[C@@H]1CCCN1C(=O)CN1CCc2ccccc2C1` is 390 µM.
